From publication PMC12498190, “A Photocaged N‐Phosphonopiperidinone as a Selective Photo‐Cleavable DPP8/9 Inhibitor” (Chembiochem, 2025)

Assays:
[1] = biological target: T1, prolyl endopeptidase (PREP) (Homo sapiens, UniProt P48147); assay: In vitro gel-based competitive ABPP in HEK293 cell lysates, 70 kDa band; settings: HEK293 lysate; 10 µM competitor, 30 min; 10 µM 2; green light 5 min
T1 construct: endogenous in cells; host or cells: HEK293 (Cytion, Germany, 300192)
T1 sequence (P48147 1-710): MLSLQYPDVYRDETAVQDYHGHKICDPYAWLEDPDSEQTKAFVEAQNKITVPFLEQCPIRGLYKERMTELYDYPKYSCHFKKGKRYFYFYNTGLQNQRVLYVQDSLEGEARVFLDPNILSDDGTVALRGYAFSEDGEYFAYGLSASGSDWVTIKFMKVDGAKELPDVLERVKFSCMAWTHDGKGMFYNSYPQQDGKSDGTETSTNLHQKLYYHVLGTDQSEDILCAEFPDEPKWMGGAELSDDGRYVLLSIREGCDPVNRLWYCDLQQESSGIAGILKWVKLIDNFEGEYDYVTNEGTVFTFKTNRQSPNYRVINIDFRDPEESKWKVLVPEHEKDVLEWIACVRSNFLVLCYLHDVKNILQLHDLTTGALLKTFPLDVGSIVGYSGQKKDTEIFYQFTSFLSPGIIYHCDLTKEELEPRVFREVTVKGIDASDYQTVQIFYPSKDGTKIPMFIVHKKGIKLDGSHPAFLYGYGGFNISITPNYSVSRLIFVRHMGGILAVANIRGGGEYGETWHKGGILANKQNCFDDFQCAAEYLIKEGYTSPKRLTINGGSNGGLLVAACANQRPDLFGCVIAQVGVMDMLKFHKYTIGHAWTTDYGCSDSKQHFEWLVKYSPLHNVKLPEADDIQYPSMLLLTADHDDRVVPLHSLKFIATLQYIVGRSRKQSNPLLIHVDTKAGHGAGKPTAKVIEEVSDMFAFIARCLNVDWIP
Procedure: (§1) Therefore, HEK293 cell lysates were pre‐incubated with 10 µM 5 or DMSO vehicle control for 30 min, followed by a labeling reaction with 2 µM of the serine hydrolase‐specific ABP fluorophosphonate‐alkyne (≡FP) or 10 µM 2 (Figure 2B). […] Of note, this band has been previously assigned as DPP9 (DPP8 would migrate in the same range, but is only expressed at low levels in the used cell line and therefore cannot be visualized by this approach).^[ [36] ^, [37] ^] […] Again, this labeling was observed regardless of prior irradiation. Subsequently, the competitive labeling experiment was conducted by pre‐incubation with compound 5, with or without subsequent irradiation.
Figure 2 Competitive ABPP with photo‐cleavable inhibitor 5 in HEK293 cells. […] HEK293 cells were irradiated with a green LED lamp in the presence of 0.5% DMSO for 5 min (‘light’), and cell viability was measured after 24 h. […] For both compounds, cell viability was measured under ‘dark’ (not irradiated) and ‘light’ (irradiated for 5 min with a green LED lamp after the addition of the inhibitor) conditions. […]
(§2) For in vitro ABPP, cell lysates were generated from HEK293 cells grown on a 10 cm tissue dish. […] The cell lysates were cleared via centrifugation (30 min, 20,817 × g, 4 °C), and protein concentration was determined with a modified Bradford assay using Roti‐Nanoquant (Carl Roth, Germany). […]

DPP9 = DPP9 (Homo sapiens, UniProt Q86TI2); assay: In vitro gel-based competitive ABPP in HEK293 cell lysates, 100 kDa band; design: endogenous in cells; host or cells: HEK293 (Cytion, Germany, 300192); settings: HEK293 lysate, 10 µM competitor, 30 min; for Competition of ≡FP labeling (in words): 2 µM ≡FP
Sequence of DPP9 (Q86TI2 whole entry): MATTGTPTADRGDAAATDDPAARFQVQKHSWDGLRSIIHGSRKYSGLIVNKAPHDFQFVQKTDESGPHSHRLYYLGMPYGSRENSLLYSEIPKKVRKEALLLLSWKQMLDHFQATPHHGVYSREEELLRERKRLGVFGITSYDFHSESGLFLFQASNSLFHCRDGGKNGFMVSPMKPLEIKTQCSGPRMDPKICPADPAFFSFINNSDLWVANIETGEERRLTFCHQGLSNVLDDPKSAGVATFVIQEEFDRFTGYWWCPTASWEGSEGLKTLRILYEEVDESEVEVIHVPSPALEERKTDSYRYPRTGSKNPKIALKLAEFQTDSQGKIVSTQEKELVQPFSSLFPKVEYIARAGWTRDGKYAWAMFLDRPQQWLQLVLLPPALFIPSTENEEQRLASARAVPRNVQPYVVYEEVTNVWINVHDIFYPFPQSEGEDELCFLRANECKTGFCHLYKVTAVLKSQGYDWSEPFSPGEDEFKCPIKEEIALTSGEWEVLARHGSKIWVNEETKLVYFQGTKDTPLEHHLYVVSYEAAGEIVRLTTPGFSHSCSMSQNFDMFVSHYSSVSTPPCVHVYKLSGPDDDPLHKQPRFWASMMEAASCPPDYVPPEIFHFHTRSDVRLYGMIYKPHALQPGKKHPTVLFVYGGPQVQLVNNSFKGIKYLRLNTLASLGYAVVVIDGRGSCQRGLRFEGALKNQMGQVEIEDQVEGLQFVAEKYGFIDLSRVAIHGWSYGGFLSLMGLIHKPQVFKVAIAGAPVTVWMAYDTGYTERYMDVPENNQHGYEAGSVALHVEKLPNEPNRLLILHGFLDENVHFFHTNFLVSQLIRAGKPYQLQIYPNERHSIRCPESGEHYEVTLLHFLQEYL
Procedure: as §1
Figure 2 Competitive ABPP with photo‐cleavable inhibitor 5 in HEK293 cells. A) Schematic overview of a competitive ABPP experiment. A proteome is pre‐incubated with a competitor, followed by a labeling reaction with an activity‐based probe (ABP). In the case of a photocaged inhibitor, the active compound can be released via irradiation. Target proteins of the competitor cannot be bound by the ABP, resulting in an absence of the respective protein band in‐gel analysis. Created in BioRender. Najdzion, M. (2025) https://BioRender.com/84zn8cb B) Gel‐based competitive ABPP experiment in HEK293 cell lysates with the broadband serine hydrolase ABP ≡FP or the DPP8/9‐directed ABP 2 and the photocaged inhibitor 5, at the indicated concentrations, after or without prior irradiation with green light for 5 min. The corresponding pre‐incubation time for 5 was 30 min. C) Corresponding in situ competitive ABPP experiment in HEK293 cell culture, again with 10 µM 2 for 1 h. Labeling was competed by pre‐incubation with 20 µM 5 for 1 h, followed by an activation of the photocaged inhibitor by irradiation for 5 min with a green LED lamp, if applicable. D) Green light treatment has no cytotoxic effect. HEK293 cells were irradiated with a green LED lamp in the presence of 0.5% DMSO for 5 min (‘light’), and cell viability was measured after 24 h. […] Data was normalized to the non‐irradiated control (‘dark’). E) Green light treatment leads to the release of the active DPP8/9 inhibitor. HEK293 cells were incubated with compound 1 or 5 for 24 h. For both compounds, cell viability was measured under ‘dark’ (not irradiated) and ‘light’ (irradiated for 5 min with a green LED lamp after the addition of the inhibitor) conditions. […] Data was normalized to the non‐irradiated DMSO control.
as §2

For `CCCCCc1ccc(SCCP(=O)(OCC)N2CCC[C@H](NC(=O)OCC3=C4C(C)=CC(C)=[N+]4[B-](C)(C)n4c(C)cc(C)c43)C2=O)cc1` (stereo partly shown) [Compound 5], the “Competition of PREP band labeling by ABP 2 (in words)” value [1] was “slight reduction”, the “Competition of ≡FP labeling (in words)” value (DPP9; green light 5 min, 100 kDa band assigned as DPP9) was “labeling competition of one specific band” and the “Competition of ≡FP labeling (in words)” value (DPP9; without irradiation) was “did not result in any competition”. For the same compound, the “Competition of DPP9 labeling by ABP 2 (in words)” value (DPP9; 10 µM 2, green light 5 min) was “efficient DPP9 labeling competition”.
